Where two headings read alike, the source gives them in different places.
Experiments:
guinea pig ileum = assay: Twitch contraction induced by electrical stimulation in guinea pig isolated ileum (Magnus assay); settings: for Relative Potency (%): against morphine (100); for Inhibitory activity (%): maximum inhibition as percentage of that by morphine, intrinsic activity on opioid receptors; for pD2 value (−log M): negative logarithm of EC50, mean ± SEM of five or six animals; for Maximum inhibition (%): response at plateau, twitch contraction regarded as 100%; for Emax / EC50: Cavia porcellus; for EC50: read-out: pD2 value (−log M) (converted)
Description: The opioid agonistic effect was evaluated in an experiment involving twitch contraction induced by electrical stimulation of guinea pig ileum.
The guinea-pig ileum was dissected and placed in Krebs-Henseleit solution (in mM: NaCl, 112.08; KCl, 5.90; CaCl2, 1.97; MgCl2, 1.18; NaH2PO4, 1.22; NaHCO3, 25.00, and glucose, 11.49). The ileum was placed under 1 g tension in a 5 ml organ bath containing the nutrient solution. The bath was maintained at 37° C. and continuously bubbled with a mixture of 95% O2 and 5% CO2. Tissues were stimulated by a platinum needle-ring (the ring was placed 20 mm above the base of a 5 mm long needle) electrode. After equilibration, the ileum was transmurally stimulated with monophasic pulses (0.2 Hz and 0.1 ms duration) by a stimulator (SEN-7203, Nihon Kohden, Tokyo, Japan). Contractions were isotonically recorded by using a displacement transducer (NEC Type 45347, San-ei Instruments Ltd., Tokyo, Japan). The effects of drug treatments on the twitch contractions evoked by transmural stimulation elicited through the ring electrodes were examined. The height of the twitch response to transmural stimulation was measured before and after the drug challenge. The responses were expressed as % inhibition of the twitch response to the transmural stimulation before the drug challenge.
Male albino guinea pigs (Japan SLC) weighing 320-550 g were used. Animals were housed in a temperature-controlled room at 24° C. with lights on from 07:00-19:00 and had free access to food and water. The guinea-pig ileum was dissected and placed in Krebs-Henseleit solution (in mM: NaCl, 112.08; KCl, 5.90; CaCl2, 1.97; MgCl2, 1.18; NaH2PO4, 1.22; NaHCO3, 25.00, and glucose, 11.49). The ileum was set up under 1 g of tension in 5 mL of an organ bath containing the nutrient solution. The bath was maintained at 37° C. and continuously bubbled with a gas mixture of 95% O2 and 5% CO2. At the start of each experiment, the maximum response to acetylcholine (3 μM) was obtained for each tissue to check its suitability. Tissues were stimulated through platinum needle-ring (a ring was placed 20 mm above the base of a needle 5 mm in length) electrodes using square wave pulses of supramaximal voltage. The ileum was transmurally stimulated with monophasic pulses (0.2 Hz) at 0.3 ms duration by a stimulator (SEN-7203, Nihon Kohden, Tokyo, Japan). Contractions were isotonically recorded with a displacement transducer (NEC, San-ei Instruments Ltd., Type 45347), a DC strain amplifier (San-ei 6M92), and a DC recorder (Hitachi, Mod 056, Tokyo, Japan). All concentration-response curves were constructed in a cumulative manner. The height of the twitch response to transmural stimulation was measured before and after drug challenge. The twitch response remaining after each sample addition was determined by dividing the height after its addition by the height before addition multiplied by 100. To obtain the percentage inhibition, this value was subtracted from 100. […] To investigate the involvement of opioid receptors in the inhibitory effect of the samples, the antagonistic effect of the opioid receptor antagonist naloxone was examined. The inhibitory effects of samples on electrically stimulated contraction were regarded as opioid activities when the antagonistic effect of naloxone was observed.

mice [1] = assay: Gastrointestinal transit (charcoal meal), constipating effect after oral administration; assay type: in vivo; settings: oral, GIT ED50 versus tail-flick ED50
Description: (§1) The inhibition of gastrointestinal transit (%) was calculated as: Inhibition of gastrointestinal transit (%)=[(saline or vehicle GIT−drug GIT)/(saline or vehicle GIT)]×100. Each value represents mean±S.E.M. of 7 or 8 mice.
(§2) Mice were fasted, with water available ad libitum, for 18 h before the experiments. […] Thirty minutes after administration of the charcoal meal, the animal was sacrificed by cervical dislocation, and the small intestine from the pylorus to the ileocecum was carefully removed. Both the length of the small intestine from the pylorus to the ileocecum and the farthest distance to which the charcoal meal had traveled were measured. For each animal, the gastrointestinal transit (GIT) was calculated as the percentage of distance traveled by the charcoal meal relative to the total length of the small intestine. The inhibition of gastrointestinal transit (%) was calculated as: Inhibition of gastrointestinal transit (%)=[(saline or vehicle GIT−drug GIT)/(saline or vehicle GIT)]×100.
(§3) The data are expressed as the mean±S.E.M. Statistical analyses were performed with two-tailed Student's t-test for comparison of two groups, and by a one-way analysis of variance followed by a Bonferroni multiple comparison test for comparison of more than two groups. A P value <0.05 was considered statistically significant.

[2] = as above; assay type: in vivo; settings: mouse, in vivo; oral administration, mice; (95% confidence limits); read-out: ED50 inhibitory effect on gastrointestinal transit (GIT), constipating ED50
Description: as §1, §2, §3

mice [3] = assay: Tail-flick test, analgesic effect after oral administration; assay type: in vivo; settings: for ED50: Mus musculus; for ED50 / ED50 analgesic effect (tail-flick): mice, (95% confidence limits); for times more potent analgesic effect than morphine: mouse tail-flick test
From the text: Analgesia was quantified using the percentage of maximum possible effect (% MPE) and calculated as: % MP=[(test latency−pre-drug latency)/(cut-off time−pre-drug latency)]×100. A cut-off time of 10 s was used to prevent tissue damage. Each value represents mean±S.E.M. of data obtained from 7 to 9 mice.
(§4) Mice respond to a focused heat stimulus by flicking or moving their tail from the path of the stimulus, thereby exposing a photocell located in the tail-flick analgesia meter (Ugo Basile Tail-flick Unit 7360, Ugo Basile, Comerio, Italy) immediately below the tail. The reaction time is automatically recorded. Prior to treatment with drugs, vehicle, or saline, the nociceptive threshold was measured three times, and the mean of the reaction time was used as the pre-drug latency for each mouse. A cut-off time of 10 s was used to prevent tissue damage. Analgesia was quantified using the percentage of maximum possible effect (% MPE) and calculated as: % MPE=[(test latency−pre-drug latency)/(cut-off time−pre-drug latency)]×100.
as §3

mice [4] = assay: Effects of opioid receptor antagonists on analgesia induced by s.c. administration, mouse tail-flick test; assay type: in vivo; settings: s.c. compound; for effect of naloxone on analgesic effect: non-selective opioid antagonist naloxone, data not shown; for effect of naltrindole on analgesic effect: δ-opioid receptor selective antagonist NTI 3 mg/kg; for effect of nor-binaltorphimine on analgesic effect: κ-opioid receptor selective antagonist norBNI 20 mg/kg; for effect of β-funaltrexamine on analgesic effect: μ-opioid receptor selective antagonist β-FNA 40 mg/kg
Description: The analgesic effects were determined in the mouse tail-flick test after s.c. administration of the following antagonists: β-funaltrexamine (β-FNA, 40 mg/kg), naltrindole (NTI, 3 mg/kg), and nor-binaltorphimine (norBNI, 20 mg/kg). Measurements were performed 15 min after s.c. administration of compound 11, compound 26 and compound 27. […] Each value represents mean±S.E.M. of 8 or 9 mice.
as §4

[5] = read-out: Inhibitory activity (%)
[6] = read-out: Maximum inhibition (%)

Compound	Relative Potency (%) (guinea pig ileum)	Emax (guinea pig ileum; [5]) [%]	Emax (guinea pig ileum; [6]) [%]	EC50 (guinea pig ileum) [nM]	further results
CC[C@@H]1CN2CC[C@@]34OCCO[C@@]3(Nc3ccc([N+](=O)[O-])c(OC)c34)[C@@H]2C[C@@H]1/C(=C\OC)C(=O)OC [Compound 14a]	537				Inhibitory activity (%) (guinea pig ileum): 75%; pD2 value (−log M) (guinea pig ileum): 7.88 ± 0.18 −log M; Maximum inhibition (%) (guinea pig ileum): 65.0 ± 4.3%
CC[C@@H]1CN2CCc3c([nH]c4cccc(OC)c34)[C@@H]2C[C@@H]1/C(=C\OC)C(=O)OC [Compound 2, Mitragynine, reference compound]	22	83	72 ± 5	316	
CN1CC[C@]23c4c5ccc(O)c4O[C@H]2[C@@H](O)C=C[C@H]3[C@H]1C5 [Morphine, reference compound]		100	87.2 ± 1.8		constipating ED50 times smaller than analgesic ED50 (mice [1]): 5 times; ED50 [2]: 11.7 mg/kg; ED50 (mice [3]): 63 mg/kg
CC[C@@H]1CN2CC[C@@]3(O)C(=Nc4cccc(OC)c43)[C@@H]2C[C@@H]1/C(=C\OC)C(=O)OC [Compound 1, 7-hydroxymitragynine, reference compound]	426	104	90.8 ± 3.4	16.6	ED50 [2]: 7.5 mg/kg; ED50 (mice [3]): 4.43 mg/kg; times more potent analgesic effect than morphine (mice [3]): 14 times
CC[C@@H]1CN2CC[C@@]3(O)C(=Nc4ccc(Br)c(OC)c43)[C@@H]2C[C@@H]1/C(=C\OC)C(=O)OC [Compound 24, 7-Hydroxy-10-bromomitragynine]	199	71	61.7 ± 6.2	35.5	
CC[C@@H]1CN2CC[C@@]3(O)C(=Nc4ccc(F)c(OC)c43)[C@@H]2C[C@@H]1/C(=C\OC)C(=O)OC [Compound 22, 7-Hydroxy-10-fluoromitragynine]	524	95	82.5 ± 1.8	13.5	
CC[C@@H]1CN2CC[C@@]34OCCO[C@@]3(Nc3cccc(OC)c34)[C@@H]2C[C@@H]1/C(=C\OC)C(=O)OC [Compound 3]	354	40	35 ± 11	20	
CCC1CN2CCC3(O)c4c(ccc(F)c4OC)NC3C2CC1C(=COC)C(=O)OC (centres unmarked) [Compound 27]	4571				ED50 analgesic effect (tail-flick) (mice [3]): 0.263 (0.165-0.420) mg/kg; ED50 analgesic effect (tail-flick) (mice [3]; listed as compound 27): 0.26 mg/kg; times more potent analgesic effect than morphine (mice [3]): 240 times; Inhibitory activity (%) (guinea pig ileum): 102%; pD2 value (−log M) (guinea pig ileum): 8.81 ± 0.09 −log M; Maximum inhibition (%) (guinea pig ileum): 89.0 ± 2.3%; effect of naloxone on analgesic effect (mice [4]): completely blocked; effect of naltrindole on analgesic effect (mice [4]): moderately inhibited; effect of nor-binaltorphimine on analgesic effect (mice [4]): had no effect; effect of β-funaltrexamine on analgesic effect (mice [4]): markedly inhibited
CC[C@@H]1CN2CC[C@@]3(O)C(=Nc4ccc(Cl)c(OC)c43)[C@@H]2C[C@@H]1/C(=C\OC)C(=O)OC [Compound 23, 7-Hydroxy-10-chloromitragynine]	239	86	74.8 ± 3	29.5	
C[C@@]12Nc3ccccc3[C@]1(C)OCCO2					melting point: 79 to 81 °C
CC[C@@H]1CN2CC[C@@]34OCCO[C@@]3(Nc3ccc(F)c(OC)c34)[C@@H]2C[C@@H]1/C(=C\OC)C(=O)OC [Compound 11]	1778	96	83.4 ± 3.2	3.98	constipating ED50 times larger than analgesic ED50 (mice [1]): 4 times; ED50 [2]: 11.1 mg/kg; ED50 (mice [3]): 2.84 mg/kg; times more potent analgesic effect than morphine (mice [3]): 22 times; effect of naloxone on analgesic effect (mice [4]): completely blocked; effect of naltrindole on analgesic effect (mice [4]): ineffective; effect of nor-binaltorphimine on analgesic effect (mice [4]): markedly inhibited; effect of β-funaltrexamine on analgesic effect (mice [4]): markedly inhibited
c1ccc2c(c1)N[C@]13CCCC[C@]21OCCO3					melting point: 156 to 157 °C
CC[C@@H]1CN2CC[C@@]34OCCO[C@@]3(Nc3ccc(Cl)c(OC)c34)[C@@H]2C[C@@H]1/C(=C\OC)C(=O)OC [Compound 12a]	288				Inhibitory activity (%) (guinea pig ileum): 55%; pD2 value (−log M) (guinea pig ileum): 7.61 ± 0.17 −log M; Maximum inhibition (%) (guinea pig ileum): 48.1 ± 9.3%

— US8648090B2, “Indole alkaloid derivatives having opioid receptor agonistic effect, and therapeutic compositions and methods relating to same” (National University Corporation Chiba University, priority 2007, dated 2014)
